For assay [1], the target named is T1, Membrane-associated tyrosine- and threonine-specific cdc2-inhibitory kinase (Homo sapiens) (UniProt Q99640).
T1 sequence (whole entry): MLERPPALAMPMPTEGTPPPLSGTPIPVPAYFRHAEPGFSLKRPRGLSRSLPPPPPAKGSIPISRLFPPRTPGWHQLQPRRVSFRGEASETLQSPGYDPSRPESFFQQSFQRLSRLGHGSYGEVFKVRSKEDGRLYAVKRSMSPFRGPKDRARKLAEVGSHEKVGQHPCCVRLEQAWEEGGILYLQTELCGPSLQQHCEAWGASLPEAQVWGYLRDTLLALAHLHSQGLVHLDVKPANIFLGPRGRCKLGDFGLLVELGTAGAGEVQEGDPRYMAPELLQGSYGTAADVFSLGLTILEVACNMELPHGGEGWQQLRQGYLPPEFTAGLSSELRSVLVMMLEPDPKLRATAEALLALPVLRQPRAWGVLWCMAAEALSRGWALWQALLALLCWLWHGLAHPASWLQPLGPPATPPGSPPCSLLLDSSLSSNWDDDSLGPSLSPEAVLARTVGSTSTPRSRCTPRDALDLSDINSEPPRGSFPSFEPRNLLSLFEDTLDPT
The assay is described as follows: Selectivity interaction (KinomeScan (DiscoverX)) EUB0000607a PKMYT1. The conditions noted are these: at 10 µM.

Assay [2] concerns the target Proto-oncogene tyrosine-protein kinase Src (Homo sapiens, UniProt P12931). The conditions noted are these: at 10 µM.
Assay [3] concerns the target Mitogen-activated protein kinase 1 (Homo sapiens, UniProt P28482). The assay is described as follows: Selectivity interaction (KinomeScan (DiscoverX)) EUB0000666a MAPK1. The conditions noted are these: at 10 µM.
Assay [4] addresses Calcium/calmodulin-dependent protein kinase type II subunit gamma (Homo sapiens) (UniProt Q13555). Put plainly: Selectivity interaction (KinomeScan (DiscoverX)) EUB0000666a CAMK2G. The settings on record: at 10 µM.
Assay [5] deals with Rho-associated protein kinase 2 (Homo sapiens, UniProt O75116). The assay is described as follows: Selectivity interaction (ProQinase) EUB0000171b ROCK2.
Sequence of Rho-associated protein kinase 2 (O75116 whole entry, looked up): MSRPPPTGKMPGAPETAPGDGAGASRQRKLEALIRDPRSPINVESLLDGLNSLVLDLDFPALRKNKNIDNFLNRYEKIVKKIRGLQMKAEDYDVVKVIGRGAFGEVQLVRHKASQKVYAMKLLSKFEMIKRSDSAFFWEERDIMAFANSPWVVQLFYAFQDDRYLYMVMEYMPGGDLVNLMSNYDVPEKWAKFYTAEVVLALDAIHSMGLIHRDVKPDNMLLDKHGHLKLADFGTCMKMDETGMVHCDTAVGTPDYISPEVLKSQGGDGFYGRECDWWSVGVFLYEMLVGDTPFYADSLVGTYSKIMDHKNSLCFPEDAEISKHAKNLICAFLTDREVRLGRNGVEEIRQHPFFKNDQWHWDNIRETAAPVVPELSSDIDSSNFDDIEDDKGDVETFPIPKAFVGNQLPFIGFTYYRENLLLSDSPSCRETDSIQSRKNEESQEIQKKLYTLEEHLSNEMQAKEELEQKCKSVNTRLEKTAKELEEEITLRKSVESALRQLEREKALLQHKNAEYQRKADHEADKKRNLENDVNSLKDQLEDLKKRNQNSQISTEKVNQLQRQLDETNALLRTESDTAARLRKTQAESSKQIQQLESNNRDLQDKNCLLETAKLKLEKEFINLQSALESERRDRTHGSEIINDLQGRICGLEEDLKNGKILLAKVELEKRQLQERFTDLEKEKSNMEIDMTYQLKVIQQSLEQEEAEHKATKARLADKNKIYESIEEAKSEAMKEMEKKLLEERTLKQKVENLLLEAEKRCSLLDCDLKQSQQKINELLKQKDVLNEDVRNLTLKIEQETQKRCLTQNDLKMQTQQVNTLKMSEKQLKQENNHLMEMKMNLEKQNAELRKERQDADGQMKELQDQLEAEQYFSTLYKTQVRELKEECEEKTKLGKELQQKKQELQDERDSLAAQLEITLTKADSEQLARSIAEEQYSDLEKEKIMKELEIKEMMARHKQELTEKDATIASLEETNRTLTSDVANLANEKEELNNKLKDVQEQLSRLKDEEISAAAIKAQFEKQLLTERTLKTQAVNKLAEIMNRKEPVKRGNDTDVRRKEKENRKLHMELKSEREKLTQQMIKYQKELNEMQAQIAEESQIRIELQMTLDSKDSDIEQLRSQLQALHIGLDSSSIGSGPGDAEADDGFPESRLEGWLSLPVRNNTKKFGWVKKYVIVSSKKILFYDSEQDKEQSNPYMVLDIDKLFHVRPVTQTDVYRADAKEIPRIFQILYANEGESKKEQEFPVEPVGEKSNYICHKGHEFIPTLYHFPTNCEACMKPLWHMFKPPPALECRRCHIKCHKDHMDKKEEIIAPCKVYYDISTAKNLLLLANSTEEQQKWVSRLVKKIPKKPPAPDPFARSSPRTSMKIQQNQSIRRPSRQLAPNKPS
Assay [6] concerns the target T2, Ephrin type-B receptor 3 (Homo sapiens) (UniProt P54753).
T2 sequence (whole entry): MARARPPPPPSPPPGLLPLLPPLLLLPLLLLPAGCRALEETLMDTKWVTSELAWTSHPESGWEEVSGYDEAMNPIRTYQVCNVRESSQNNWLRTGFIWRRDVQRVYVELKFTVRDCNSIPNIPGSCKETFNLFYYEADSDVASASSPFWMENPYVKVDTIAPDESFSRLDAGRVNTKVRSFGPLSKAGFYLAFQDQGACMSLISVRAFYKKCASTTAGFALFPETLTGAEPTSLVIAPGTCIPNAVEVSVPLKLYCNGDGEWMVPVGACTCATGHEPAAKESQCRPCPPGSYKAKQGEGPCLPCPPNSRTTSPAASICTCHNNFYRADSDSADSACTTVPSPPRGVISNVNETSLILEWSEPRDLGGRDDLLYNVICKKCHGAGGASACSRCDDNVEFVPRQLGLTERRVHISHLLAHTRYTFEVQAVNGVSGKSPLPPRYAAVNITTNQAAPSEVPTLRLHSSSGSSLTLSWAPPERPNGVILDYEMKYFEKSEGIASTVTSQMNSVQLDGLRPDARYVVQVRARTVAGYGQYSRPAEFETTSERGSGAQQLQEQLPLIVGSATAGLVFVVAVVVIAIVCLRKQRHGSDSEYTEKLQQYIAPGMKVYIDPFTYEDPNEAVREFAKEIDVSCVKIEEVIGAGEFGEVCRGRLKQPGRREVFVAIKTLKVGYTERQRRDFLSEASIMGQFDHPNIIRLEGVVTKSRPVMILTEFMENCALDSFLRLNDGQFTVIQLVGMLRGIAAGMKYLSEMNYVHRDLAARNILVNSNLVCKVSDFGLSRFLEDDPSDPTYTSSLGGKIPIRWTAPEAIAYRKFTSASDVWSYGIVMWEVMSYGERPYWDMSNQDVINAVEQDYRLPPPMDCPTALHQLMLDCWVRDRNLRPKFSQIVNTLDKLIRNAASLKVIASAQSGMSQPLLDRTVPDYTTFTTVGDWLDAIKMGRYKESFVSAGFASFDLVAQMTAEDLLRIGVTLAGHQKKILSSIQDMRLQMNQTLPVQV
The assay is described as follows: Selectivity interaction (Kinase panel (DSF assay)) EUB0001559a EPHB3.

Assay [7] has as its target Cyclin-dependent kinase 7 (Homo sapiens, UniProt P50613). The assay is described as follows: Selectivity interaction (KinomeScan (DiscoverX)) EUB0000618a CDK7. The settings on record: at 10 µM.
In assay [8] the target is T3, Serine/threonine-protein kinase 3 (Homo sapiens) (UniProt Q13188).
T3 sequence (whole entry): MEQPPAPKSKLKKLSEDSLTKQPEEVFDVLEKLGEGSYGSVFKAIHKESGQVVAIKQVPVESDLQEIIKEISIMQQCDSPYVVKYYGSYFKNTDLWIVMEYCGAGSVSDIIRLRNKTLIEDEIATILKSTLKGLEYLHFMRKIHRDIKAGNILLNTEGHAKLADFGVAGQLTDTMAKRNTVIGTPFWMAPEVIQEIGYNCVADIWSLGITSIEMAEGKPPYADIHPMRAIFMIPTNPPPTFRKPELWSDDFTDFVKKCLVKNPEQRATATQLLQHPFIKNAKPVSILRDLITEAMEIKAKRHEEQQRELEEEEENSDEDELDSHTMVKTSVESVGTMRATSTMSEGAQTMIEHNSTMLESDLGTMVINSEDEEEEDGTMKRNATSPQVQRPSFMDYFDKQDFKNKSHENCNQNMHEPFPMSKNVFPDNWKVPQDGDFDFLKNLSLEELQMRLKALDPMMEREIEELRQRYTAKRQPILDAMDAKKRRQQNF
The assay is described as follows: Selectivity interaction (KinomeScan (DiscoverX)) EUB0000595a STK3. The conditions noted are these: at 10 µM.

Each structure is given as a SMILES string.

Sequence of Calcium/calmodulin-dependent protein kinase type II subunit gamma (Homo sapiens) (Q13555 whole entry): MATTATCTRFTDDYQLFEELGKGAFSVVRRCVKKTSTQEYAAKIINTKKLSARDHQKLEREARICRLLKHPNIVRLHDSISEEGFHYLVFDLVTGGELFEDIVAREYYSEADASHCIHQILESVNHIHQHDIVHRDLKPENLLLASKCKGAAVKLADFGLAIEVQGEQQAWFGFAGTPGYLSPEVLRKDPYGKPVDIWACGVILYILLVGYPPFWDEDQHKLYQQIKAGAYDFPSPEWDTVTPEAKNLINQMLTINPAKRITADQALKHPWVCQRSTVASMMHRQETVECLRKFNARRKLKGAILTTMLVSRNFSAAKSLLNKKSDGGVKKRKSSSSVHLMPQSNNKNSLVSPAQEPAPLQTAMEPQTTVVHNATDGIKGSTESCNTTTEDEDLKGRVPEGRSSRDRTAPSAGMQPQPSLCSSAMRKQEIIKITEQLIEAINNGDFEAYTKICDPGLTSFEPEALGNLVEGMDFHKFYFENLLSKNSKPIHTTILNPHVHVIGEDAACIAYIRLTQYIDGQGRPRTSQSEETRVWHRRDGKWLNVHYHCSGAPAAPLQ
Sequence of Proto-oncogene tyrosine-protein kinase Src (P12931 2-536 limits assumed): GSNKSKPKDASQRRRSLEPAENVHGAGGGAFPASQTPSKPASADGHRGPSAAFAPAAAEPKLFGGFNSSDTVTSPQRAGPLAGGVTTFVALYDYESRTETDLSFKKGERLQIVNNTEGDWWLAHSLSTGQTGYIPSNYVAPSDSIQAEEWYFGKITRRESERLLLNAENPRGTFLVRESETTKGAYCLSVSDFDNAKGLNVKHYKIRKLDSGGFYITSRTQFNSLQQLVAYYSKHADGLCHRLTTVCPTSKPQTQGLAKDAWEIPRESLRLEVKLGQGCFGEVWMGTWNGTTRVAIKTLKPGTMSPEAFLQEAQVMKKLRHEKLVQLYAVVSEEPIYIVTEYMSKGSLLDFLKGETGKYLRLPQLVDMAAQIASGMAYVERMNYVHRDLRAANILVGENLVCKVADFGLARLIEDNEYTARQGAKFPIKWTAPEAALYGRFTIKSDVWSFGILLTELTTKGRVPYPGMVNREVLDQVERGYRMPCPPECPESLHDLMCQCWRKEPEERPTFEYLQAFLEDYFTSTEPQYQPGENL
Sequence of Cyclin-dependent kinase 7 (P50613 whole entry): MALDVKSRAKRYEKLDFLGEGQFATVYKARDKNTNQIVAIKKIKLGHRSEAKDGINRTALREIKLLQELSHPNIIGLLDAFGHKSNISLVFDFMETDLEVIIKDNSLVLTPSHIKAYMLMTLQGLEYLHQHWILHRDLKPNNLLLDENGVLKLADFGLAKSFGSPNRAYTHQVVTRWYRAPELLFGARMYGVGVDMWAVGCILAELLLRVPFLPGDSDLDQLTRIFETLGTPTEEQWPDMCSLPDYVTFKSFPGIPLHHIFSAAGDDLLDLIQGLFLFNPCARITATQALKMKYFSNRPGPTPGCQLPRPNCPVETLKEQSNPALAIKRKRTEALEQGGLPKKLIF
Sequence of Mitogen-activated protein kinase 1 (P28482 whole entry): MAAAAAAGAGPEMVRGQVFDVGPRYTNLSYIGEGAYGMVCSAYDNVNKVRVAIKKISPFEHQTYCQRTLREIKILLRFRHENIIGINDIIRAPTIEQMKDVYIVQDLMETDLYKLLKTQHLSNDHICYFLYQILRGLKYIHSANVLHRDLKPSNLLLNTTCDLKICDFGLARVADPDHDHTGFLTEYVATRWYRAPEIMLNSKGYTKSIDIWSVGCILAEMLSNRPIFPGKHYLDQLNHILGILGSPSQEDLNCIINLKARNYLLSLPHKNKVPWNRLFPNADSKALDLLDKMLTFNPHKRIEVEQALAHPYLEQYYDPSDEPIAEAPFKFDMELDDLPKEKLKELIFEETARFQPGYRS

The compound `CNC(=O)Nc1ccc(-c2nc(N3CC4CCC(C3)O4)c3cnn(C4CCC5(CC4)OCCO5)c3n2)cc1` displayed a % of control in assay [1] of 75%.

In assay [2], `Cc1cc([C@@H](C)Nc2ccccc2C(=O)O)c2nc(N3CCOCC3)cc(=O)n2c1` [AZD-6482] showed a % of control of 100%.

Take `O=C(NOC[C@H](O)CO)c1ccc(F)c(F)c1Nc1ccc(I)cc1F`: the % of control in assay [3] and in assay [4] was 100% in each case.

As for `C=CC(=O)Nc1cccc(C(=O)Nc2ccc(Nc3cc(-c4[nH]c(SC)nc4C)ccn3)cc2)c1`, the % of control in assay [5] (at 1 µM) was determined as 95%; in assay [5] (at 5 µM), 75%.

As to `CN(C(=O)c1cnn2cccnc12)c1cc2c(cc1N1CCOCC1)C(=O)N(C[C@@H](F)C(C)(C)O)C2`, the dTM in assay [6] came out at 0 K.

`O[C@H]1CC[C@H](Nc2ncc3nc(Nc4c(F)cc(F)cc4F)n([C@H]4CCOC4)c3n2)CC1` came in with a % of control in assay [7] of 100%.

In turn, `COCC(=O)NC/C=C/c1ccc2ncnc(Nc3ccc(Oc4ccc(C)nc4)c(C)c3)c2c1` [CP-724714] showed a % of control in assay [8] of 82%.

For the origin of these results see ChEMBL document CHEMBL5465560, “Selectivity Literature for EUbOPEN Chemogenomic Library” (2024).
